Assay results published in PubChem BioAssay AID330 (DTP/NCI, 2004).
“And” between values parts separate entries of the source, which are not always exact repeats. Identical values can stand only once. Toxic doses and inconclusive results are not listed. The calls were made as follows: active = survival T/C of 150% or more; inactive = T/C below 125% in these data.

Tested on: P388 leukemia ip, CD2F1 mice, survival T/C
Experiment: NCI In Vivo Anticancer Drug Screen. Data for tumor model P388 Leukemia (intraperitoneal) in CD2F1 (CDF1) mice
Conditions: endpoint: median survival time, higher = longer survival
How it was run: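 Mice carrying the transplanted tumor received test compound or vehicle. Survival was recorded in each group, and the value is the treated-group measurement divided by that of the vehicle-treated control group.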

[1] = dose: 60.0 mg/kg/injection, schedule: Q01DX005 (ip), vehicle: saline with Tween-80
[2] = dose: 120.0 mg/kg/injection, schedule: Q01DX005 (ip), vehicle: saline with Tween-80
[3] = dose: 240.0 mg/kg/injection, schedule: Q01DX005 (ip), vehicle: saline with Tween-80
[4] = dose: 25.0 mg/kg/injection, schedule: Q01DX005 (ip), vehicle: Klucel (hydroxypropylcellulose) (HPC)
[5] = dose: 50.0 mg/kg/injection, schedule: Q01DX005 (ip), vehicle: Klucel (hydroxypropylcellulose) (HPC)
[6] = dose: 100.0 mg/kg/injection, schedule: Q01DX005 (ip), vehicle: Klucel (hydroxypropylcellulose) (HPC)
[7] = dose: 200.0 mg/kg/injection, schedule: Q01DX005 (ip), vehicle: Klucel (hydroxypropylcellulose) (HPC)
[8] = dose: 100.0 mg/kg/injection, schedule: Q01DX001 (ip), vehicle: saline with Tween-80
[9] = dose: 60.0 mg/kg/injection, schedule: Q01DX005 (ip), vehicle: saline
[10] = dose: 120.0 mg/kg/injection, schedule: Q01DX005 (ip), vehicle: saline
[11] = dose: 240.0 mg/kg/injection, schedule: Q01DX005 (ip), vehicle: saline
[12] = dose: 100.0 mg/kg/injection, schedule: Q04DX003 (ip), vehicle: Klucel (hydroxypropylcellulose) (HPC)
[13] = dose: 200.0 mg/kg/injection, schedule: Q04DX003 (ip), vehicle: Klucel (hydroxypropylcellulose) (HPC)
[14] = dose: 50.0 mg/kg/injection, schedule: Q01DX009 (ip), vehicle: saline with Tween-80
[15] = dose: 100.0 mg/kg/injection, schedule: Q01DX009 (ip), vehicle: saline with Tween-80
[16] = dose: 200.0 mg/kg/injection, schedule: Q01DX009 (ip), vehicle: saline with Tween-80
[17] = dose: 50.0 mg/kg/injection, schedule: Q01DX005 (ip), vehicle: saline with Tween-80
[18] = dose: 100.0 mg/kg/injection, schedule: Q01DX005 (ip), vehicle: saline with Tween-80

Measured: T/C

COc1ccc(N2C(=O)C(C)SC23C(=O)Nc2ccc(C)cc23)cc1 (centres undefined)
inactive: [1] 109 % of control | [2] 102 % of control | [3] 119 % of control

COC(=O)c1ccccc1N1C(=O)c2ccccc2NP1(=O)Oc1ccccc1 (centres undefined)
inactive: [4] 101 % of control | [5] 104 % of control | [6] 106 % of control | [7] 91 % of control

COC(=O)CCC(Br)(Br)Br
inactive: dose: 50.0 mg/kg/injection, schedule: Q01DX009 (ip), vehicle: Klucel (hydroxypropylcellulose) (HPC) 94 % of control | dose: 100.0 mg/kg/injection, schedule: Q01DX009 (ip), vehicle: Klucel (hydroxypropylcellulose) (HPC) 99 % of control

Cc1ccc(N2C(c3ccccc3)=CC(=C3C=CC(=O)C=C3)C=C2c2ccccc2)cc1
inactive: dose: 3.75 mg/kg/injection, schedule: Q01DX005 (ip), vehicle: saline with Tween-80 110 % of control | dose: 7.5 mg/kg/injection, schedule: Q01DX005 (ip), vehicle: saline with Tween-80 112 % of control | dose: 15.0 mg/kg/injection, schedule: Q01DX005 (ip), vehicle: saline with Tween-80 103 % of control

Nc1ccc2cc(S(=O)(=O)O)c(N=Nc3ccc(-c4ccc(N=Nc5ccc(O)c(C(=O)O)c5)cc4)cc3)c(O)c2c1
inactive: [5] 92 % of control | [6] 97 % of control | [7] 95 % of control

O=NN(CCCl)C(=O)Oc1ccc(Cl)cc1Cl
inactive: dose: 3.12 mg/kg/injection, schedule: Q01DX001 (ip), vehicle: saline with Tween-80 106 % of control | dose: 6.25 mg/kg/injection, schedule: Q01DX001 (ip), vehicle: saline with Tween-80 118 % of control | dose: 25.0 mg/kg/injection, schedule: Q01DX001 (ip), vehicle: saline with Tween-80 123 % of control | dose: 50.0 mg/kg/injection, schedule: Q01DX001 (ip), vehicle: saline with Tween-80 109 % of control | [8] 122 % of control | dose: 150.0 mg/kg/injection, schedule: Q01DX001 (ip), vehicle: saline with Tween-80 118 % of control

Nc1nc2c(c(-c3nc(N)nc4c3CCC4)n1)CCC2
inactive: [9] 98 % of control | [10] 106 % of control | [11] 97 % of control

OC1CCCCC1C1CCCCC1O (centres undefined)
inactive: [8] 105 % of control | dose: 200.0 mg/kg/injection, schedule: Q01DX001 (ip), vehicle: saline with Tween-80 99 % of control | dose: 400.0 mg/kg/injection, schedule: Q01DX001 (ip), vehicle: saline with Tween-80 104 % of control

COc1c2c(cc3c1C(O)=CC(=O)C3=O)OCO2
inactive: [5] 104 % of control | [6] 100 % of control | [7] 107 % of control

CC1CC=C(C(=O)N2CCOCC2)C1 (centres undefined)
inactive: dose: 50.0 mg/kg/injection, schedule: Q04DX003 (ip), vehicle: Klucel (hydroxypropylcellulose) (HPC) 103 % of control | [12] 105 % of control | [13] 101 % of control

COc1ccc(CN2CC(C)N(N=Cc3c4c(O)c5c(O)c(C)c6c(c5c3O)C(=O)C(C)(O/C=C/C(OC)C(C)C(OC(C)=O)C(C)C(O)C(C)C(O)C(C)/C=C/C=C(\C)C(=O)N4)O6)C(C)C2)cc1 (centres undefined)
inactive: dose: 25.0 mg/kg/injection, schedule: Q01DX009 (ip), vehicle: saline with Tween-80 110 % of control | [14] 103 % of control and 116 % of control | dose: 50.0 mg/kg/injection, schedule: Q01DX009 (ip), vehicle: suspension in saline 112 % of control | [15] 113 % of control and 119 % of control | dose: 100.0 mg/kg/injection, schedule: Q01DX009 (ip), vehicle: suspension in saline 108 % of control | [16] 119 % of control | dose: 200.0 mg/kg/injection, schedule: Q01DX009 (ip), vehicle: suspension in saline 91 % of control

C/C(=C1/N=C(c2ccccc2)OC1=O)c1cccs1
inactive: [5] 106 % of control | [6] 100 % of control | [7] 96 % of control

CC(C)N1C(=O)c2ccccc2S12c1ccccc1C(=O)N2C(C)C
inactive: [12] 93 % of control | [13] 90 % of control | dose: 400.0 mg/kg/injection, schedule: Q04DX003 (ip), vehicle: Klucel (hydroxypropylcellulose) (HPC) 90 % of control

CCCCc1c(O)c2c(=O)n(C)c(=O)n3c4ccccc4n(c1=O)c23
inactive: [1] 100 % of control | [2] 89 % of control | [3] 90 % of control

O=c1[nH]c2ccccc2n1CCCN1CCN(C(c2ccccc2)c2ccccc2)CC1
inactive: [14] 102 % of control | [15] 94 % of control | [16] 95 % of control

COc1cc(Cc2n[nH]c(=S)n2-c2ccccc2)c(S(=O)(=O)N2CCOCC2)cc1OC
inactive: [9] 102 % of control | [10] 95 % of control | [11] 95 % of control

CCCCCCCCCCCCCCCCS(=O)(=O)N/N=c1\cc(-c2ccccc2Cl)c2ccccc2n1C
inactive: dose: 12.5 mg/kg/injection, schedule: Q01DX009 (ip), vehicle: saline 92 % of control | dose: 25.0 mg/kg/injection, schedule: Q01DX009 (ip), vehicle: saline 90 % of control | dose: 50.0 mg/kg/injection, schedule: Q01DX009 (ip), vehicle: saline 89 % of control and 90 % of control | dose: 200.0 mg/kg/injection, schedule: Q01DX009 (ip), vehicle: saline 89 % of control

NC(=S)c1ccc(/C=N/c2nc3ccccc3s2)cc1
inactive: dose: 25.0 mg/kg/injection, schedule: Q01DX001 (ip), vehicle: Klucel (hydroxypropylcellulose) (HPC) 103 % of control | dose: 50.0 mg/kg/injection, schedule: Q01DX001 (ip), vehicle: Klucel (hydroxypropylcellulose) (HPC) 97 % of control | dose: 100.0 mg/kg/injection, schedule: Q01DX001 (ip), vehicle: Klucel (hydroxypropylcellulose) (HPC) 96 % of control and 97 % of control | dose: 200.0 mg/kg/injection, schedule: Q01DX001 (ip), vehicle: Klucel (hydroxypropylcellulose) (HPC) 97 % of control | dose: 400.0 mg/kg/injection, schedule: Q01DX001 (ip), vehicle: Klucel (hydroxypropylcellulose) (HPC) 97 % of control

O=C1OC(C(=O)O)c2ccc3c(c21)OCO3 (centres undefined)
inactive: [15] 100 % of control | [16] 98 % of control | dose: 400.0 mg/kg/injection, schedule: Q01DX009 (ip), vehicle: saline with Tween-80 91 % of control

Cc1cn(CCCOc2c3occc3cc3ccc(=O)oc23)c(=O)[nH]c1=O
inactive: dose: 12.5 mg/kg/injection, schedule: Q01DX005 (ip), vehicle: Klucel (hydroxypropylcellulose) (HPC) 86 % of control | [4] 96 % of control | [5] 88 % of control

O=C(Nc1cccc2ccccc12)ON1C(=O)c2ccccc2C1=O
inactive: dose: 25.0 mg/kg/injection, schedule: Q01DX005 (ip), vehicle: saline with Tween-80 92 % of control | [17] 99 % of control and 113 % of control and 96 % of control | [18] 110 % of control and 119 % of control

Cc1cc(C)n(P2(n3nc(C)cc3C)=NP(n3nc(C)cc3C)(n3nc(C)cc3C)=NP(n3nc(C)cc3C)(n3nc(C)cc3C)=N2)n1
inactive: [17] 98 % of control | [18] 98 % of control | dose: 200.0 mg/kg/injection, schedule: Q01DX005 (ip), vehicle: saline with Tween-80 99 % of control

CCCCCCCCCCCCCCCCCCCCCCCCC(O)C(=O)NC(CO)C(O)C(O)CCCCCCCCCCCCCC (centres undefined)
inactive: dose: 1.56 mg/kg/injection, schedule: Q04DX003 (ip), vehicle: saline with Tween-80 91 % of control | dose: 3.13 mg/kg/injection, schedule: Q04DX003 (ip), vehicle: saline with Tween-80 100 % of control | dose: 6.25 mg/kg/injection, schedule: Q04DX003 (ip), vehicle: saline with Tween-80 95 % of control
